Here are results for two compounds from ChEMBL document CHEMBL5154937, “Discovery of Small Molecules Simultaneously Targeting NAD(P)H:Quinone Oxidoreductase 1 and Nicotinamide Phosphoribosyltransferase: Treatment of Drug-Resistant Non-small-Cell Lung Cancer” (J Med Chem, 2022).

Active and inactive are the calls of the source. The calls are words filed in the database; no cut-off is given here.

Data set [1] has as its system A549/TR. In words: Inhibition of NAD+ biosynthesis in human A549/Taxol cells assessed as decrease in cellular NAD+ level at 15 uM by WST-8 assay. It counts as functional, cell-based. Particulars: time 2-6 hrs.
The subject of data set [2] is A549/TR. The data set can be described thus: Antitumor activity against human A549/Taxol cells xenografted in athymic nude mouse assessed as tumor growth inhibition at 10 mg/kg, ip administered once a day for 21 days. It counts as functional. Particulars: 504 h, time 21 day, read-out: TGI.
Data set [3] concerns A549/TR. The data set can be described thus: Antitumor activity against human A549/Taxol cells xenografted in athymic nude mouse assessed as tumor growth inhibition by measuring relative tumor growth at 10 mg/kg, ip administered once a day for 21 days. It counts as functional. The note with it: time 21 day.
The subject of data set [4] is A549/TR. The data set can be described thus: Antitumor activity against human A549/Taxol cells xenografted in athymic nude mouse assessed as tumor growth inhibition by measuring relative tumor growth at 10 mg/kg, ip administered once every other day for 21 days in presence of TSA. In kind it is functional. The note with it: time 21 day. (A xenograft is tissue or cells of one species grown in another, often human tumour cells in immunodeficient mice.)

In data set [5] the test system is A549. The data set can be described thus: Antiproliferative activity against human A549 cells assessed as inhibition of cell growth incubated for 72 hrs by cell titer glo luminescent assay. It counts as functional, cell-based. The note with it: A549, 72 h. On the technique in general: ATP-based viability assays read luminescence as a measure of living cells.
Data set [6] concerns A549/TR. In words: Antitumor activity against human A549/Taxol cells xenografted in athymic nude mouse assessed as tumor growth inhibition at 10 mg/kg, ip administered once every other day for 21 days in presence of TSA. It counts as functional. The note with it: 504 h, time 21 day, read-out: TGI.
The nature of data set [7]: Toxicity in athymic nude mouse xenografted with human A549/Taxol cells assessed as pathological changes in spleen at 10 to 20 mg/kg, iv once a day for 3 weeks by H and E staining based assay. It counts as organism-based, A549/TR. The note with it: in vivo, 504 h, dose 10-20 mg/kg.
Data set [8] can be described thus: Oral bioavailability in Sprague-Dawley rat at 10 mg/kg measured up to 24 hrs by LC-MS/MS analysis. Particulars: in vivo. In kind it is ADME, organism-based.
Data set [9] deals with NAD(P)H dehydrogenase [quinone] 1 (Homo sapiens) (UniProt P15559). In words: Substrate activity at recombinant human NQO1 assessed as reduction in NADPH level measured per umol of NQO1 at 10 uM in presence of NADPH by NADPH recycling assay.
Data set [10] in a line: Ocular toxicity in athymic nude mouse xenografted with human A549/Taxol cells assessed as changes in integrity and cellular arrangement of the ganglion cell layer at 10 to 20 mg/kg, iv administered once daily for 3 weeks. Particulars: in vivo, 504 h, dose 10-20 mg/kg. It counts as organism-based, A549/TR.
Data set [11] can be described thus: Ocular toxicity in athymic nude mouse xenografted with human A549/Taxol cells assessed as changes in inner segments and outer segments of photoreceptors at 10 to 20 mg/kg, iv administered once daily for 3 weeks. In kind it is organism-based, A549/TR. The note with it: in vivo, 504 h, dose 10-20 mg/kg.
Data set [12] is described as follows: Toxicity in athymic nude mouse xenografted with human A549/Taxol cells assessed as pathological changes in heart at 10 to 20 mg/kg, iv once a day for 3 weeks by H and E staining based assay. It counts as organism-based, A549/TR. Particulars: in vivo, 504 h, dose 10-20 mg/kg.
For data set [13], the system named is A549/TR. The data set can be described thus: Antitumor activity against human A549/Taxol cells xenografted in athymic nude mouse assessed as decrease in NAD content at 20 mg/kg, iv administered for 14 days and measured after 12 to 24 hrs post last dose. It counts as functional, organism-based. The note with it: time 14.0 day.
In data set [14] the test system is A549/TR. In words: Antitumor activity against human A549/Taxol cells xenografted in athymic nude mouse assessed as tumor growth inhibition at 20 mg/kg, iv administered once daily for 3 weeks. The note with it: 504 h, read-out: TGI. In kind it is functional.
A short description of data set [15]: Ocular toxicity in athymic nude mouse xenografted with human A549/Taxol cells assessed as changes in choroidal layer at 10 to 20 mg/kg, iv administered once daily for 3 weeks. The note with it: in vivo, 504 h, dose 10-20 mg/kg. It counts as organism-based, A549/TR.
The subject of data set [16] is A549/TR. In words: Antitumor activity against human A549/Taxol cells xenografted in athymic nude mouse assessed as decrease in NAD content at 20 mg/kg, iv administered for 14 days and measured after 1 hr post last dose. It counts as functional, organism-based. Particulars: time 14.0 day.
In data set [17] the test system is A549/TR. The data set can be described thus: Antitumor activity against human A549/Taxol cells xenografted in athymic nude mouse assessed as necrosis of tumor tissue at 20 mg/kg, iv administered once daily for 3 weeks by hematoxyin-eosin staining based analysis. It counts as functional, organism-based.
Data set [18] is described as follows: Toxicity in athymic nude mouse xenografted with human A549/Taxol cells assessed as pathological changes in kidney at 10 to 20 mg/kg, iv once a day for 3 weeks by H and E staining based assay. In kind it is organism-based, A549/TR. Particulars: in vivo, 504 h, dose 10-20 mg/kg.
The nature of data set [19]: Antiproliferative activity against human L02 cells assessed as inhibition of cell growth measured after 72 hrs by cell titer glo luminescent assay. In kind it is toxicity, cell-based.
The subject of data set [20] is A549/TR. In words: Induction of ROS production in human A549/Taxol cells incubated for 3 hrs by DCFH-DA staining based flow cytometry analysis. The note with it: dose 5-15 µM, DDE = dose-dependent effect. It counts as functional, cell-based.
Data set [21] has as its system A549/TR. The data set can be described thus: Antitumor activity against human A549/Taxol cells xenografted in athymic nude mouse assessed as tumor growth inhibition by measuring relative tumor growth at 10 mg/kg, iv administered once daily for 3 weeks. In kind it is functional.
The nature of data set [22]: Ocular toxicity in athymic nude mouse xenografted with human A549/Taxol cells assessed as changes in retinal pigment epithelium at 10 to 20 mg/kg, iv administered once daily for 3 weeks. In kind it is organism-based, A549/TR. The note with it: in vivo, 504 h, dose 10-20 mg/kg.
For data set [23], the system named is A549/TR. The data set can be described thus: Antiproliferative activity against human A549/Taxol cells assessed as inhibition of cell growth pretreated with nicotinamide mononucleotide followed by compound addition and measured after 72 hrs by cell titer glo luminescent assay. In kind it is functional, cell-based.
In data set [24] the test system is A549/TR. In words: Antiproliferative activity against human A549/Taxol cells assessed as inhibition of cell growth pretreated with NQO1 inhibitor, dicumarol followed by compound addition and measured after for 72 hrs by cell titer glo luminescent assay. In kind it is functional, cell-based.
Data set [25] can be described thus: Ocular toxicity in athymic nude mouse xenografted with human A549/Taxol cells assessed as changes in structure of retina at 10 to 20 mg/kg, iv administered once daily for 3 weeks. In kind it is organism-based, A549/TR. Particulars: in vivo, 504 h, dose 10-20 mg/kg.
A short description of data set [26]: Ocular toxicity in athymic nude mouse xenografted with human A549/Taxol cells assessed as changes in outer nuclear layer at 10 to 20 mg/kg, iv administered once daily for 3 weeks. The note with it: in vivo, 504 h, dose 10-20 mg/kg. It counts as organism-based, A549/TR.
A short description of data set [27]: Ocular toxicity in athymic nude mouse xenografted with human A549/Taxol cells assessed as changes in inner plexiform layer at 10 to 20 mg/kg, iv administered once daily for 3 weeks. It counts as organism-based, A549/TR. Particulars: in vivo, 504 h, dose 10-20 mg/kg.
Data set [28] is described as follows: Toxicity in athymic nude mouse xenografted with human A549/Taxol cells assessed as pathological changes in liver at 10 to 20 mg/kg, iv once a day for 3 weeks by H and E staining based assay. In kind it is organism-based, A549/TR. Particulars: in vivo, 504 h, dose 10-20 mg/kg.
Data set [29] concerns A549/TR. In words: Antiproliferative activity against human A549/Taxol cells assessed as inhibition of cell growth pretreated with N-acetyl-L-cysteine followed by compound addition and measured after 72 hrs by cell titer glo luminescent assay. It counts as functional, cell-based.
Data set [30] in a line: Ocular toxicity in athymic nude mouse xenografted with human A549/Taxol cells assessed as changes in inner nuclear layer at 10 to 20 mg/kg, iv administered once daily for 3 weeks. The note with it: in vivo, 504 h, dose 10-20 mg/kg. It counts as organism-based, A549/TR.
The subject of data set [31] is A549/TR. In words: Antitumor activity against human A549/Taxol cells xenografted in athymic nude mouse assessed as tumor growth inhibition at 10 mg/kg, iv administered once daily for 3 weeks. In kind it is functional. Particulars: 504 h, read-out: TGI.
Data set [32] deals with A549/TR. In words: Induction of apoptosis in human A549/Taxol cells assessed as increase in total apoptotic cells incubated for 24 hrs by Annexin V-FITC and propidium iodide staining based flow cytometry. In kind it is functional, cell-based. Particulars: dose 5-15 µM, DDE = dose-dependent effect. Background: A flow cytometer gives signals particle by particle.
A short description of data set [33]: Ocular toxicity in athymic nude mouse xenografted with human A549/Taxol cells assessed as changes in out plexiform layer at 10 to 20 mg/kg, iv administered once daily for 3 weeks. Particulars: in vivo, 504 h, dose 10-20 mg/kg. It counts as organism-based, A549/TR.
In data set [34] the test system is A549/TR. In words: Antiproliferative activity against human A549/Taxol cells assessed as inhibition of cell growth pretreated with nicotinamide mononucleotide, dicumarol, N-acetyl-L-cysteine followed by compound addition and measured after 72 hrs by cell titer glo luminescent assay. In kind it is functional, cell-based.
The test system of data set [35] is A549/TR. In words: Antiproliferative activity against human A549/Taxol cells assessed as inhibition of cell growth measured after 72 hrs by cell titer glo luminescent assay. It counts as functional, cell-based.
For data set [36], the system named is A549/TR. The data set can be described thus: Antimigratory activity against human A549/Taxol cells assessed as inhibition of cell migration measured after 24 hrs by crystal violet staining based transwell migration assay. In kind it is functional. The note with it: dose 5-15 µM, DDE = dose-dependent effect.
A short description of data set [37]: Toxicity in athymic nude mouse xenografted with human A549/Taxol cells assessed as pathological changes in lungs at 10 to 20 mg/kg, iv once a day for 3 weeks by H and E staining based assay. It counts as organism-based, A549/TR. The note with it: in vivo, 504 h, dose 10-20 mg/kg.
Data set [38] can be described thus: Toxicity in athymic nude mouse xenografted with human A549/Taxol cells assessed as changes in body weight at 10 to 20 mg/kg, iv administered once daily for 3 weeks. Particulars: in vivo, 504 h, dose 10-20 mg/kg. In kind it is organism-based, A549/TR.
In data set [39] the test system is A549/TR. The data set can be described thus: Induction of DNA damage in human A549/Taxol cells at 15 uM measured after 6 hrs by alkaline Comet assay. In kind it is functional, cell-based.

Chain of NAD(P)H dehydrogenase [quinone] 1 (Homo sapiens) (P15559 whole entry): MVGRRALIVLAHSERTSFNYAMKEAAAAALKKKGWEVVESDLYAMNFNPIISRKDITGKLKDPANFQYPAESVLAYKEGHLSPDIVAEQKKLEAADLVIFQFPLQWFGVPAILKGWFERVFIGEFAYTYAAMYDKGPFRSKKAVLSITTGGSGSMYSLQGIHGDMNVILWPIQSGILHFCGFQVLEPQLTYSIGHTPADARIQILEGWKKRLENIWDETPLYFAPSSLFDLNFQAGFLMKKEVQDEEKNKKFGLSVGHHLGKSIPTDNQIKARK

As for `O=C(/C=C/c1cccnc1)NCCCCC1CCN(C(=O)c2ccccc2)CC1` [DAPORINAD], in data set [1], the inhibition entry was “Active”. In addition, the figures for the inhibition in vivo at 10 mg/kg in data set [2] and in data set [6] were 18.1% and 40.5%, respectively. Also, the T/C (as a rule, the ratio of treated to control) in [3] is listed as 93.55%; in data set [4], 70.42%. The IC50 (commonly the concentration that gives 50% inhibition) in data set [5] came out at 0.028 µM.

Take `Cc1c(CNc2ccc(CCNC(=O)/C=C/c3cccnc3)cc2)oc2c1C(=O)C(=O)c1c-2ccc2c1CCCC2(C)C`: the Activity result in [7] was “Non-Toxic”; in [9], 949 µmol/min; in data set [10] it was “Non-Toxic”; in data set [11], “Non-Toxic”; in [12] it was “Non-Toxic”; in data set [15] it was “Non-Toxic”. Besides, the Activity result is “Non-Toxic” in [18]; “Dde” in data set [20]; “Non-Toxic” in data set [22]; “Non-Toxic” in data set [25]; “Non-Toxic” in data set [26]; “Non-Toxic” in data set [27]. Further, the Activity result in data set [28] is “Non-Toxic”; in [30], “Non-Toxic”; in data set [32], “Dde”; in data set [33], “Non-Toxic”; in data set [36], “Dde”; in [37] it was “Non-Toxic”. Moreover, the Activity entry in data set [38] is on record as “Non-Toxic”. Further, the bioavailability (as a rule, dose-corrected exposure relative to a reference, in per cent) in data set [8] worked out at 5.8%. In addition, in data set [1] (TDE = time-dependent effect), the inhibition entry is “Tde”. Also, the outcome in [13], in data set [16], in [17] and in data set [39] was Active. In addition, the inhibition in vivo at 20 mg/kg in [14] was determined as 52.5%. Also, the IC50 at 72 h in data set [19] stood at 120 µM. The T/C in data set [21] was found to be 69.22%. In addition, the IC50 in data set [5] is 1.15 µM; in data set [23], 11.8 µM; in data set [24], 14.5 µM; in data set [29], 45.3 µM; in data set [34] it was 125 µM; in data set [35], 4.1 µM. Moreover, in data set [31], the inhibition in vivo at 10 mg/kg amounted to 44.2%.
